Measured values published in US10835542B2, “9-aminomethyl minocycline compounds and use thereof in treating community-acquired bacterial pneumonia (CABP)” (Paratek Pharmaceuticals, Inc., priority 2016, dated 2020).
Values joined by “and” are separate entries in the source; they are usually repeats but may differ in a detail not shown here. Equal values may be shown once. Read-outs that look alike come from different tables or passages of the source.

Columns and labels:
[1] = tested on: Haemophilus parainfluenzae; test: Clinical success at PTE by baseline pathogen, microITT; assay type: in vivo, human; details: N1 = 18 (Compound 1), 17 (Moxifloxacin)
[2] = Absolute bioavailability of the tablet formulation (tosylate salt); details: phase 3 tablet formulation (tosylate salt), fasting conditions; listed as omadacycline
[3] = tested on: baseline pathogen; assay type: in vivo, human; details: PTE, microITT
[4] = Food effect on plasma PK of a single 300 mg oral dose, healthy volunteers (4-period crossover); assay type: in vivo, human
[5] = Safety assessments in the multiple iv dose BAL study, healthy adult subjects; assay type: in vivo, human; details: 5 doses of 100 mg iv
Description: Safety assessments included physical examinations, electrocardiograms (ECG), vital signs, standard clinical laboratory evaluations (blood chemistry, hematology), pregnancy testing, and adverse event (AE) and serious adverse event (SAE) monitoring.
Any subject who received at least 1 dose of test article was included in the evaluation for safety. Safety was assessed by the following measures: Physical exams; AEs and SAEs; Vital signs; Laboratory assessments (Blood samples for hematology, chemistry, and coagulation (prothrombin time only)); ECG; and Pregnancy assessments.
Subjects were analyzed according to the treatment actually received.

[6] = Lung tissue versus plasma concentrations in mice; details: mouse
[7] = tested on: cSSSI; test: Phase 2 and Phase 3 studies in complicated skin and skin structure infection (cSSSI); assay type: in vivo, human
[8] = tested on: Haemophilus influenzae; test: Mouse model of lower respiratory tract infection; assay type: in vivo; details: infection caused by Haemophilus influenzae
[9] = tested on: Community-Acquired Bacterial Pneumonia (CABP); test: Phase 3 CABP study: Investigator's Assessment of Clinical Response at PTE; assay type: in vivo, human; details: CE-PTE
[10] = PORT Risk Class II as randomized
[11] = PORT Risk Class III as randomized
[12] = PORT Risk Class III/IV as randomized
[13] = PORT Risk Class IV as randomized

Compound: CN(C)c1cc(CNCC(C)(C)C)c(O)c2c1C[C@H]1C[C@H]3[C@H](N(C)C)C(O)=C(C(N)=O)C(=O)[C@@]3(O)C(O)=C1C2=O [Compound 1, 9-[(2,2-dimethyl-propylamino)-methyl]-minocycline]
- Clinical Success n (%) [1]: 15 (83.3) n (%)
- absolute bioavailability [2]: 35%
- Clinical Success n (%) ([3]; baseline pathogen Acinetobacter baumanii complex, N1 = 0 (Compound 1), 1 (Moxifloxacin)): 0 n (%)
- Clinical Success n (%) ([3]; baseline pathogen Acinetobacter baumanii, N1 = 0 (Compound 1), 1 (Moxifloxacin)): 0 n (%)
- Clinical Success n (%) ([3]; baseline pathogen Acinetobacter junii, N1 = 1 (Compound 1), 0 (Moxifloxacin)): 1 (100.0) n (%)
- Clinical Success n (%) ([3]; baseline pathogen Acinetobacter lwoffii, N1 = 1 (Compound 1), 0 (Moxifloxacin)): 1 (100.0) n (%)
- Clinical Success n (%) ([3]; baseline pathogen Citrobacter braakii, N1 = 0 (Compound 1), 1 (Moxifloxacin)): 0 n (%)
- Clinical Success n (%) ([3]; baseline pathogen Citrobacter freundii, N1 = 0 (Compound 1), 1 (Moxifloxacin)): 0 n (%)
- Clinical Success n (%) ([3]; baseline pathogen Enterobacter cloacae, N1 = 2 (Compound 1), 4 (Moxifloxacin)): 2 (100.0) n (%)
- Clinical Success n (%) ([3]; baseline pathogen Haemophilus haemolyticus, N1 = 1 (Compound 1), 0 (Moxifloxacin)): 1 (100.0) n (%)
- Clinical Success n (%) ([3]; baseline pathogen Haemophilus parahaemolyticus, N1 = 2 (Compound 1), 2 (Moxifloxacin)): 2 (100.0) n (%)
- Clinical Success n (%) ([3]; baseline pathogen Klebsiella oxytoca, N1 = 1 (Compound 1), 4 (Moxifloxacin)): 0 n (%)
- Clinical Success n (%) ([3]; baseline pathogen Morganella morganii, N1 = 1 (Compound 1), 0 (Moxifloxacin)): 1 (100.0) n (%)
- Clinical Success n (%) ([3]; baseline pathogen Neisseria meningitidis, N1 = 1 (Compound 1), 1 (Moxifloxacin)): 1 (100.0) n (%)
- Clinical Success n (%) ([3]; baseline pathogen Prevotella oris, N1 = 0 (Compound 1), 1 (Moxifloxacin)): 0 n (%)
- Clinical Success n (%) ([3]; baseline pathogen Proteus mirabilis, N1 = 2 (Compound 1), 2 (Moxifloxacin)): 1 (50.0) n (%)
- Clinical Success n (%) ([3]; baseline pathogen Pseudomonas aeruginosa, N1 = 3 (Compound 1), 5 (Moxifloxacin)): 2 (66.7) n (%)
- Clinical Success n (%) ([3]; baseline pathogen Pseudomonas putida, N1 = 0 (Compound 1), 1 (Moxifloxacin)): 0 n (%)
- Clinical Success n (%) ([3]; baseline pathogen Serratia marcescens, N1 = 1 (Compound 1), 0 (Moxifloxacin)): 1 (100.0) n (%)
- Clinical Success n (%) ([3]; baseline pathogen Stenotrophomonas maltophilia, N1 = 0 (Compound 1), 2 (Moxifloxacin)): 0 n (%)
- Clinical Success n (%) ([3]; baseline pathogen Streptococcus agalactiae, N1 = 2 (Compound 1), 3 (Moxifloxacin)): 2 (100.0) n (%)
- Clinical Success n (%) ([3]; baseline pathogen Streptococcus anginosus, N1 = 0 (Compound 1), 1 (Moxifloxacin)): 0 n (%)
- Clinical Success n (%) ([3]; baseline pathogen Streptococcus constellatus, N1 = 1 (Compound 1), 1 (Moxifloxacin)): 1 (100.0) n (%)
- Clinical Success n (%) ([3]; baseline pathogen Streptococcus gordonii, N1 = 0 (Compound 1), 1 (Moxifloxacin)): 0 n (%)
- Clinical Success n (%) ([3]; baseline pathogen Streptococcus mitis group, N1 = 1 (Compound 1), 2 (Moxifloxacin)): 1 (100.0) n (%)
- Clinical Success n (%) ([3]; baseline pathogen Streptococcus mitis, N1 = 3 (Compound 1), 5 (Moxifloxacin)): 3 (100.0) n (%)
- Clinical Success n (%) ([3]; baseline pathogen Streptococcus oralis, N1 = 1 (Compound 1), 0 (Moxifloxacin)): 1 (100.0) n (%)
- Clinical Success n (%) ([3]; baseline pathogen Streptococcus parasanguinis, N1 = 0 (Compound 1), 2 (Moxifloxacin)): 0 n (%)
- Clinical Success n (%) ([3]; baseline pathogen Streptococcus salivarius, N1 = 1 (Compound 1), 3 (Moxifloxacin)): 1 (100.0) n (%)
- Clinical Success n (%) ([3]; baseline pathogen Streptococcus sanguinis, N1 = 0 (Compound 1), 2 (Moxifloxacin)): 0 n (%)
- between-subject variability in systemic exposure (CV) for Cmax and AUC ([4]; Treatment D): 42.6-44.4%
- between-subject variability in systemic exposure (CV) for Cmax and AUC ([4]; Treatments A, B and C): 22.4-29.2%
- Treatment-emergent adverse events (TEAEs) reported [5]: 29%
- changes in vital signs, laboratory or ECG parameters [5]: no clinically significant changes
- discontinuations due to TEAEs [5]: no discontinuations due to TEAEs
- most common TEAE: headache [5]: 12%
- severe or serious TEAEs [5]: no severe or serious TEAEs
- Kp [6]: 3.7 to 4.4
- tolerability in cSSSI studies ([7]; Phase 2 (219 subjects) and terminated Phase 3 (143 subjects)): well-tolerated
- efficacy in cSSSI studies ([7]; versus comparator linezolid): efficacy similar to an established comparator (linezolid)
- efficacy in mouse model of lower respiratory tract infection [8]: effective
- Difference (95% CI) in Overall Clinical Success rate at PTE, Compound 1 minus moxifloxacin [9]: 2.5% and 2.5 (−1.7, 6.8) %
- Overall clinical response at PTE: Clinical Failure [9]: 24 (7.1) n (%)
- Overall clinical response at PTE: Clinical Success [9]: 316 (92.9) n (%)
- Clinical Failure at PTE [9, 10]: 3 (6.8) n (%)
- Clinical Success at PTE [9, 10]: 41 (93.2) n (%)
- Difference (95% CI) in clinical success at PTE [9, 10]: 1.5 (−11.2, 13.9)^[4] %
- Clinical Failure at PTE [9, 11]: 14 (6.5) n (%)
- Clinical Success at PTE [9, 11]: 202 (93.5) n (%)
- Difference (95% CI) in clinical success at PTE [9, 11]: 2.5 (−2.7, 7.8)^[4] %
- Clinical Failure at PTE [9, 12]: 21 (7.1) n (%)
- Clinical Success at PTE [9, 12]: 275 (92.9) n (%)
- Difference (95% CI) in clinical success at PTE [9, 12]: 2.7 (−1.9, 7.3)^[4] %
- Clinical Failure at PTE [9, 13]: 7 (8.8) n (%)
- Clinical Success at PTE [9, 13]: 73 (91.3) n (%)
- Difference (95% CI) in clinical success at PTE [9, 13]: 3.0 (−6.8, 12.8)^[4] %
- Clinical Failure at PTE ([9]; actual PORT Risk Class II): 2 (4.4) n (%)
- Clinical Success at PTE ([9]; actual PORT Risk Class II): 43 (95.6) n (%)
- Difference (95% CI) in clinical success at PTE ([9]; actual PORT Risk Class II): 5.8 (−6.1, 18.1)^[4] %
- Clinical Failure at PTE ([9]; actual PORT Risk Class III): 13 (6.4) n (%)
- Clinical Success at PTE ([9]; actual PORT Risk Class III): 191 (93.6) n (%)
- Difference (95% CI) in clinical success at PTE ([9]; actual PORT Risk Class III): 1.5 (−3.6, 6.9)^[4] %
- Clinical Failure at PTE ([9]; actual PORT Risk Class III/IV): 22 (7.5) n (%)
- Clinical Success at PTE ([9]; actual PORT Risk Class III/IV): 273 (92.5) n (%)
